# In PubChem BioAssay (NCI):
#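 48-hour exposure; five concentrations; linearly interpolated endpoints. Abbreviation: GI50, concentration required for 50% inhibition of growth. TGI is the concentration that stops growth completely.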
# Assays:
# Experiment in all cases: DTP human tumour cell line panel, 48 h
# NCI-H522 lung = tested on: NCI-H522 lung
# HT29 colon = tested on: HT29 colon
# KM12 colon = tested on: KM12 colon
# DU-145 prostate = tested on: DU-145 prostate
# 786-0 renal = tested on: 786-0 renal
# SK-MEL-2 melanoma = tested on: SK-MEL-2 melanoma
# A549 NSCLC = tested on: A549 NSCLC
# HCT-15 colon = tested on: HCT-15 colon
# OVCAR-3 ovarian = tested on: OVCAR-3 ovarian
# SK-OV-3 ovarian = tested on: SK-OV-3 ovarian
# CAKI-1 renal = tested on: CAKI-1 renal
# OVCAR-4 ovarian = tested on: OVCAR-4 ovarian
# NCI-H23 lung = tested on: NCI-H23 lung
# SR leukemia = tested on: SR leukemia
# SF-268 CNS = tested on: SF-268 CNS
# K-562 leukemia = tested on: K-562 leukemia
# NCI-H460 lung = tested on: NCI-H460 lung
# UACC-62 melanoma = tested on: UACC-62 melanoma
# HOP-62 NSCLC = tested on: HOP-62 NSCLC
# SN12C renal = tested on: SN12C renal
# IGROV1 ovarian = tested on: IGROV1 ovarian
# HCC-2998 colon = tested on: HCC-2998 colon
# SNB-75 CNS = tested on: SNB-75 CNS
# SF-539 CNS = tested on: SF-539 CNS
# CCRF-CEM leukemia = tested on: CCRF-CEM leukemia
# SNB-19 CNS = tested on: SNB-19 CNS
# BT-549 breast = tested on: BT-549 breast
# SF-295 CNS = tested on: SF-295 CNS
# HCT-116 colon = tested on: HCT-116 colon
# MCF7 breast = tested on: MCF7 breast
# MOLT-4 leukemia = tested on: MOLT-4 leukemia
# HS 578T breast = tested on: HS 578T breast
# MDA-MB-435 = tested on: MDA-MB-435
# MDA-MB-231 breast = tested on: MDA-MB-231 breast
# RPMI-8226 leukemia = tested on: RPMI-8226 leukemia
# SK-MEL-5 melanoma = tested on: SK-MEL-5 melanoma
# ACHN renal = tested on: ACHN renal
# M14 melanoma = tested on: M14 melanoma
# MALME-3M melanoma = tested on: MALME-3M melanoma
# NCI/ADR-RES ovarian = tested on: NCI/ADR-RES ovarian
# OVCAR-5 ovarian = tested on: OVCAR-5 ovarian
# UO-31 renal = tested on: UO-31 renal
# U251 CNS = tested on: U251 CNS
# SW-620 colon = tested on: SW-620 colon
# PC-3 prostate = tested on: PC-3 prostate
# HOP-92 NSCLC = tested on: HOP-92 NSCLC
# LOX IMVI melanoma = tested on: LOX IMVI melanoma
# HL-60(TB) leukemia = tested on: HL-60(TB) leukemia
# OVCAR-8 ovarian = tested on: OVCAR-8 ovarian
# T-47D breast = tested on: T-47D breast
# COLO 205 colon = tested on: COLO 205 colon
# SK-MEL-28 melanoma = tested on: SK-MEL-28 melanoma
# EKVX NSCLC = tested on: EKVX NSCLC
# TK-10 renal = tested on: TK-10 renal
# NCI-H226 lung = tested on: NCI-H226 lung
compound,measurement,setting,value
CCCNCc1cc(C)cc2c1nc(N1CCNCC1)n2Cc1cc(C)c(F)c(C)c1,GI50,NCI-H522 lung,2.09 µM
same,TGI,NCI-H522 lung,5.67 µM
same,GI50,HT29 colon,2.09 µM
same,TGI,HT29 colon,5.29 µM
same,GI50,KM12 colon,3.08 µM
same,TGI,KM12 colon,11.7 µM
same,GI50,DU-145 prostate,6.15 µM
same,TGI,DU-145 prostate,19.6 µM
same,GI50,786-0 renal,1.86 µM
same,TGI,786-0 renal,3.96 µM
same,GI50,SK-MEL-2 melanoma,14.1 µM
same,TGI,SK-MEL-2 melanoma,28.1 µM
same,GI50,A549 NSCLC,4.54 µM
same,TGI,A549 NSCLC,17.1 µM
same,GI50,HCT-15 colon,4.46 µM
same,TGI,HCT-15 colon,16.4 µM
same,GI50,OVCAR-3 ovarian,3.71 µM
same,TGI,OVCAR-3 ovarian,13.5 µM
same,GI50,SK-OV-3 ovarian,15.8 µM
same,TGI,SK-OV-3 ovarian,29.4 µM
same,GI50,CAKI-1 renal,14.4 µM
same,TGI,CAKI-1 renal,27.6 µM
same,GI50,OVCAR-4 ovarian,7.12 µM
same,TGI,OVCAR-4 ovarian,21.8 µM
same,GI50,NCI-H23 lung,12.8 µM
same,TGI,NCI-H23 lung,27.3 µM
same,GI50,SR leukemia,1.22 µM
same,TGI,SR leukemia,3.39 µM
same,GI50,SF-268 CNS,5.11 µM
same,TGI,SF-268 CNS,19.7 µM
same,GI50,K-562 leukemia,1.9 µM
same,TGI,K-562 leukemia,3.78 µM
same,GI50,NCI-H460 lung,1.93 µM
same,TGI,NCI-H460 lung,4.03 µM
same,GI50,UACC-62 melanoma,1.87 µM
same,TGI,UACC-62 melanoma,3.66 µM
same,GI50,HOP-62 NSCLC,17 µM
same,TGI,HOP-62 NSCLC,32.2 µM
same,GI50,SN12C renal,7.57 µM
same,TGI,SN12C renal,21.6 µM
same,GI50,IGROV1 ovarian,10.3 µM
same,TGI,IGROV1 ovarian,25.1 µM
same,GI50,HCC-2998 colon,1.83 µM
same,TGI,HCC-2998 colon,3.47 µM
same,GI50,SNB-75 CNS,12.1 µM
same,TGI,SNB-75 CNS,26.4 µM
same,GI50,SF-539 CNS,1.79 µM
same,TGI,SF-539 CNS,3.59 µM
same,GI50,CCRF-CEM leukemia,2.2 µM
same,TGI,CCRF-CEM leukemia,4.71 µM
same,GI50,SNB-19 CNS,2.41 µM
same,TGI,SNB-19 CNS,7.18 µM
same,GI50,BT-549 breast,12.3 µM
same,TGI,BT-549 breast,26.1 µM
same,GI50,SF-295 CNS,1.79 µM
same,TGI,SF-295 CNS,3.57 µM
same,GI50,HCT-116 colon,2.19 µM
same,TGI,HCT-116 colon,4.54 µM
same,GI50,MCF7 breast,2.25 µM
same,TGI,MCF7 breast,6.05 µM
same,GI50,MOLT-4 leukemia,1.8 µM
same,TGI,MOLT-4 leukemia,4.39 µM
same,GI50,HS 578T breast,2.56 µM
same,TGI,HS 578T breast,11.6 µM
same,GI50,MDA-MB-435,1.7 µM
same,TGI,MDA-MB-435,3.21 µM
same,GI50,MDA-MB-231 breast,1.61 µM
same,TGI,MDA-MB-231 breast,3.8 µM
same,GI50,RPMI-8226 leukemia,2.09 µM
same,TGI,RPMI-8226 leukemia,5.29 µM
same,GI50,SK-MEL-5 melanoma,1.75 µM
same,TGI,SK-MEL-5 melanoma,3.21 µM
same,GI50,ACHN renal,4.37 µM
same,TGI,ACHN renal,15.5 µM
same,GI50,M14 melanoma,1.86 µM
same,TGI,M14 melanoma,3.47 µM
same,GI50,MALME-3M melanoma,1.86 µM
same,TGI,MALME-3M melanoma,3.53 µM
same,GI50,NCI/ADR-RES ovarian,16.1 µM
same,TGI,NCI/ADR-RES ovarian,31 µM
same,GI50,OVCAR-5 ovarian,7.58 µM
same,TGI,OVCAR-5 ovarian,22.3 µM
same,GI50,UO-31 renal,13.2 µM
same,TGI,UO-31 renal,27.3 µM
same,GI50,U251 CNS,1.84 µM
same,TGI,U251 CNS,3.58 µM
same,GI50,SW-620 colon,1.96 µM
same,TGI,SW-620 colon,4.34 µM
same,GI50,PC-3 prostate,2.49 µM
same,TGI,PC-3 prostate,7.66 µM
same,GI50,HOP-92 NSCLC,1.83 µM
same,TGI,HOP-92 NSCLC,6.49 µM
same,GI50,LOX IMVI melanoma,1.72 µM
same,TGI,LOX IMVI melanoma,3.22 µM
same,GI50,HL-60(TB) leukemia,1.76 µM
same,TGI,HL-60(TB) leukemia,3.8 µM
same,GI50,OVCAR-8 ovarian,3.9 µM
same,TGI,OVCAR-8 ovarian,13.8 µM
same,GI50,T-47D breast,1.88 µM
same,TGI,T-47D breast,3.62 µM
same,GI50,COLO 205 colon,1.82 µM
same,TGI,COLO 205 colon,3.42 µM
same,GI50,SK-MEL-28 melanoma,1.84 µM
same,TGI,SK-MEL-28 melanoma,3.54 µM
same,GI50,EKVX NSCLC,9.56 µM
same,TGI,EKVX NSCLC,22.6 µM
same,GI50,TK-10 renal,14.3 µM
same,TGI,TK-10 renal,28 µM
same,GI50,NCI-H226 lung,19.1 µM
same,TGI,NCI-H226 lung,38.2 µM
